Data: patent US9725442B2, “Heterocyclic derivative having PGD2 receptor antagonist activity” (Shionogi & Co., Ltd., priority 2011, dated 2017)
Like-named read-outs stand apart in the source and are kept apart here.

Columns and labels:
[1] = target: CRTH2 (Homo sapiens (Human), UniProt Q9Y5Y4); experiment: CRTH2 receptor binding inhibitory activity ([3H]-PGD2 displacement, membranes of CRTH2-expressing K562 cell); conditions: [3H]-PGD2 displacement, membrane of CRTH2-expressing K562 cell, read-out: Ki
Chain of CRTH2 (Q9Y5Y4 whole entry): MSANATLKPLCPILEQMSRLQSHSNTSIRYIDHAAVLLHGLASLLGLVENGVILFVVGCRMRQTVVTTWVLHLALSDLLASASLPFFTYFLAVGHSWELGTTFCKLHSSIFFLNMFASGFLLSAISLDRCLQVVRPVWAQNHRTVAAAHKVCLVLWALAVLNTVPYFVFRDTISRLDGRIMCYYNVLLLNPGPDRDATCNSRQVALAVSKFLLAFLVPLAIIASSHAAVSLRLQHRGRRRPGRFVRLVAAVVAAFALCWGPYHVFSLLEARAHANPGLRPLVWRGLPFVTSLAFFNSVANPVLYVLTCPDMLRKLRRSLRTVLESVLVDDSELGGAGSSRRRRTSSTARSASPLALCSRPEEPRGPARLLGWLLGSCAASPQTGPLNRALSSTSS
How it was run: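 CRTH2-expressing K562 membranes (20 μg/well) in 50 mM Tris/HCl pH 7.4 with 10 mM MgCl2 were incubated with [3H]-PGD2 for 60 min at room temperature, then filtered.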

[2] = target: Human DP1 receptor (Homo sapiens (Human), UniProt Q13258); experiment: Human DP1 inhibitory activity in DP1-expressing cell (PGD2-induced cAMP); format: cell-based; conditions: category of cAMP IC50, human DP1 receptor expressing Jurkut cell
Chain of Human DP1 receptor (Q13258 whole entry): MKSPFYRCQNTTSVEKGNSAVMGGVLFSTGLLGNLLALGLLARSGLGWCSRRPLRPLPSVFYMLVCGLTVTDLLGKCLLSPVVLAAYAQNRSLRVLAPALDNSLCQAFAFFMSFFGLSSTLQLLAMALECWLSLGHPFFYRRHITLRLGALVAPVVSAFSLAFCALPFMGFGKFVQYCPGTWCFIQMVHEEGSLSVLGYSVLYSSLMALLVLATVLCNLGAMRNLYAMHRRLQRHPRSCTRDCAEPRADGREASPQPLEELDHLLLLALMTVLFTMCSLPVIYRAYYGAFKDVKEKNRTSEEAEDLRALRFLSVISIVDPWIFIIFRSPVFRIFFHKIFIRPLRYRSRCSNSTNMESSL
Protocol: Compounds were categorized as AA (cAMP is less than 100 nM) and A (cAMP is more than 100 nM and less than 5000 nM) as shown in Table 99 and 100.

[3] = CRTH2 receptor binding, categorized AAAA/AAA

Compound | Ki [1, 3] [nM] | IC50 [2] [nM] | Ki [1] [nM]
CC[C@@H]1CN(S(=O)(=O)c2ccc(OC(C)C)cc2)C[C@@H]1n1nc(CC(=O)O)c2ccc(F)cc21 [Compound I-39] | < 100 | < 100 | –
CC(C)Oc1ccc(S(=O)(=O)N2C[C@@H](C)[C@@H](n3cc(CC(=O)O)c4cccnc43)C2)cc1 [Compound I-148] | < 100 | 100 to 5000 | 5.6
Cc1ccc(S(=O)(=O)N2C[C@@H](C)[C@@H](n3nc(CC(=O)O)c4ccc(F)cc43)C2)cc1 [Compound I-117] | < 100 | 100 to 5000 | 1.6
C[C@@H]1CN(S(=O)(=O)c2ccc(OC(F)(F)F)cc2)C[C@@H]1n1nc(CC(=O)O)c2ccccc21 [Compound I-242] | < 100 | < 100 | –
CCOc1ccc(S(=O)(=O)N2C[C@@H](C)[C@@H](n3cc(CC(=O)O)c4ccc(-c5ncco5)cc43)C2)cc1 [Compound I-282] | < 100 | 100 to 5000 | 10
CC(C)Oc1ccc(S(=O)(=O)N2C[C@H](n3nc(CC(=O)O)c4ccc(F)cc43)C[C@@H]2CF)cc1 [Compound I-13] | < 100 | < 100 | –
CC(C)Oc1ccc(S(=O)(=O)N2C[C@H](n3nc(CC(=O)O)c4ccc(F)cc43)C[C@H]2C)cc1 [Compound I-10] | < 100 | 100 to 5000 | 8.2
CCC[C@@H]1CN(S(=O)(=O)c2ccc(OC(C)C)cc2)C[C@@H]1n1nc(CC(=O)O)c2ccc(F)cc21 [Compound I-34] | < 100 | < 100 | 77
C[C@@H]1CN(S(=O)(=O)c2ccc(C(F)(F)F)cc2)C[C@@H]1n1nc(CC(=O)O)c2ccc(F)cc21 [Compound I-119] | < 100 | 100 to 5000 | –
CCc1ccc(S(=O)(=O)N2C[C@@H](C)[C@@H](n3nc(CC(=O)O)c4ccc(C)cc43)C2)cc1 [Compound I-232] | < 100 | < 100 | –
CC(C)Oc1ccc(S(=O)(=O)N2C[C@H](n3nc(CC(=O)O)c4ccc(F)cc43)C[C@@H]2COc2cccc(F)c2)cc1 [Compound I-303] | 100 to 5000 | < 100 | –
CC(C)Oc1ccc(S(=O)(=O)N2C[C@H](n3nc(CC(=O)O)c4ccc(F)cc43)C[C@@H]2CC#N)cc1 [Compound I-18] | < 100 | 100 to 5000 | –
CCOc1ccc(S(=O)(=O)N2C[C@H](n3nc(CC(=O)O)c4ccccc43)[C@H](C)[C@H]2C#N)cn1 [Compound I-293] | 100 to 5000 | 100 to 5000 | –
C[C@@H]1CN(S(=O)(=O)c2cc3ccccc3s2)C[C@@H]1n1nc(CC(=O)O)c2ccccc21 [Compound I-152] | < 100 | 100 to 5000 | 56
Cc1ccc2c(CC(=O)O)nn([C@H]3CN(S(=O)(=O)C4CC4C(C)C)C[C@H]3C)c2c1 (some centres unmarked) [Compound I-249] | < 100 | 100 to 5000 | –
CC(C)Oc1ccc(S(=O)(=O)N2C[C@H](n3nc(CC(=O)O)c4ccc(F)cc43)C[C@@H]2Cc2ccccc2)cc1 [Compound I-348] | < 100 | < 100 | –
COCCOc1ccc(S(=O)(=O)N2C[C@@H](C)[C@@H](n3nc(CC(=O)O)c4ccccc43)C2)cc1 [Compound I-189] | < 100 | 100 to 5000 | –
CCOc1ccc(S(=O)(=O)N2C[C@@H](C)[C@H](n3nc(CC(=O)O)c4ccccc43)C2)cc1 [Compound I-197] | 100 to 5000 | 100 to 5000 | –
C[C@@H]1CN(S(=O)(=O)c2ccc(OC(F)(F)F)cc2)C[C@@H]1n1nc(CC(=O)O)c2ccc(F)cc21 [Compound I-120] | < 100 | < 100 | –
CCOc1ccc(S(=O)(=O)N2C[C@@H](C)[C@@H](n3nc(CC(=O)O)c4cc(C#N)ccc43)C2)cc1 [Compound I-160] | 100 to 5000 | < 100 | –

Compound | Ki [1, 3] [nM] | IC50 [2] [nM] | Ki [1] [nM]
CCOc1ccc(S(=O)(=O)N2C[C@@H](C)[C@@H](n3nc(CC(=O)O)c4ccccc43)C2)c(C(C)O)c1 (some centres unmarked) [Compound I-312] | < 100 | < 100 | –
CC(C)Oc1ccc(S(=O)(=O)N2C[C@H](n3nc(CC(=O)O)c4ccc(F)cc43)C[C@H]2CF)cc1 [Compound I-12] | < 100 | 100 to 5000 | –
C#Cc1cc(OCC)ccc1S(=O)(=O)N1C[C@@H](C)[C@@H](n2nc(CC(=O)O)c3ccccc32)C1 [Compound I-278] | < 100 | 100 to 5000 | –
CC(C)C1CC1S(=O)(=O)N1C[C@@H](C)[C@@H](n2nc(CC(=O)O)c3ccccc32)C1 (some centres unmarked) [Compound I-238] | < 100 | 100 to 5000 | –
CCOc1ccc(S(=O)(=O)N2C[C@@H](C)[C@@H](n3nc(CC(=O)O)c4ccc(C)cc43)C2)c(F)c1 [Compound I-237] | < 100 | < 100 | –
C[C@@H]1CN(S(=O)(=O)C2CCCCC2)C[C@@H]1n1nc(CC(=O)O)c2ccccc21 [Compound I-266] | 100 to 5000 | 100 to 5000 | –
CCOc1ccc(S(=O)(=O)N2C[C@@H](C)[C@@H](n3nc(C(F)C(=O)O)c4ccccc43)C2)cc1 (some centres unmarked) [Compound I-338] | 100 to 5000 | < 100 | –
COC[C@H]1C[C@@H](n2nc(CC(=O)O)c3ccc(F)cc32)CN1S(=O)(=O)c1ccc(OC(C)C)cc1 [Compound I-17] | < 100 | < 100 | –
CC(C)Oc1ccc(S(=O)(=O)N2C[C@@H](C)[C@@H](n3nc(CC(=O)NC#N)c4ccc(F)cc43)C2)cc1 [Compound I-139] | < 100 | < 100 | 32
CCOCCOc1ccc(S(=O)(=O)N2C[C@@H](C)[C@@H](n3nc(CC(=O)O)c4ccccc43)C2)cc1 [Compound I-191] | < 100 | 100 to 5000 | –
CC(C)Oc1ccc(S(=O)(=O)N2C[C@@H](C)[C@@H](n3nc(CC(=O)O)c4cc(F)ccc43)C2)cc1 [Compound I-69] | 100 to 5000 | < 100 | –
CCOc1ccc(S(=O)(=O)N2C[C@@H](n3nc(CC(=O)O)c4ccccc43)[C@H](C)[C@H]2C#N)cc1 [Compound I-294] | 100 to 5000 | 100 to 5000 | –
CCOc1ccc(S(=O)(=O)N2C[C@@H](C)[C@@H](n3nc(CC(=O)O)c4ccccc43)C2)c(C#N)c1 [Compound I-200] | < 100 | < 100 | –
C[C@@H]1CN(S(=O)(=O)c2cccc(Cl)c2)C[C@@H]1n1nc(CC(=O)O)c2ccc(F)cc21 [Compound I-122] | < 100 | 100 to 5000 | 2.5
COc1ccc(S(=O)(=O)N2C[C@@H](C)[C@@H](n3nc(CC(=O)O)c4ccc(F)cc43)C2)s1 [Compound I-179] | < 100 | < 100 | –
CCOc1ccc(S(=O)(=O)N2C[C@H](n3nc(CC(=O)O)c4ccccc43)[C@@H](C)[C@@H]2C#N)cc1 [Compound I-304] | < 100 | < 100 | –
CCOc1ccc(S(=O)(=O)N2C[C@@H](C)[C@@H](n3nc(CC(=O)O)c4ccccc43)C2)c(CCO)c1 [Compound I-314] | < 100 | 100 to 5000 | –
CC(C)Oc1ccc(S(=O)(=O)N2C[C@H](n3nc(CC(=O)O)c4ccc(F)cc43)C[C@]2(C)C#N)cc1 [Compound I-104] | < 100 | < 100 | 16
CC(C)Oc1ccc(S(=O)(=O)N2C[C@H](n3nc(CC(=O)O)c4ccc(F)cc43)C[C@@H]2C(F)F)cc1 [Compound I-22] | < 100 | < 100 | –
CC(C)Oc1ccc(S(=O)(=O)N2C[C@@H](C)[C@@H](n3nc(CCC(=O)O)c4ccc(F)cc43)C2)cc1 [Compound I-101] | 100 to 5000 | 100 to 5000 | –
